# Laboratory results published in patent publication US20140248291A1, “Modulation of Cellular Migration” (THE UAB RESEARCH FOUNDATION, priority 2011, published 2014).
# Tests used:
# [1] = test system: D54-EGFP tumor cells; assay: tumor invasion/growth in organotypic mouse brain slice cultures; format: cell-based, human
# Procedure: Slice cultures were prepared from brains of P13-P16 BALB/c scid mice (Jackson Laboratory). Coronal brain sections 300 μm thick were sliced with a Vibrotome 3000 sectioning system in ice cold artificial saline. Brain slices were transferred into filter inserts with a polycarbonate membrane (Falcon, BD, pore size 0.45 μm). Filters were placed into 6-well plates containing 1 ml of DMEM supplemented with 8% FCS, 0.2 mM glutamine, 100 U/mL penicillin, and […] streptomycin. After overnight repose the medium was changed to cultivation medium containing 25% heat-inactivated horse serum, 50 mM sodium bicarbonate, 2% glutamine, 25% Hank's balanced salt solution, […] insulin (all from Gibco), 2.46 mg/mL glucose (Sigma Aldrich), 0.8 mg/mL vitamin C (Sigma Aldrich), 100 U/mL penicillin, […] streptomycin (Sigma Aldrich), and 5 mM Tris in DMEM (Gibco). At day 3 of culturing approximately 3000 D54-EGFP tumor cells in a volume of 1 μl were implanted per organotypic brain slice. Cells were injected using a 1 μl hemilton syringe mounted to a micromanipulator. The cell suspension was slowly injected over 30 seconds and subsequently the syringe was slowly pulled out. Gliomas were always inoculated into the right cortex. […] The tumor area was determined using ImageJ software (available from rsbweb.nih.gov). Tumor growth was calculated between day 4 and day 11 of culturing.
# [2] = molecular target: T1, BK receptor in guinea-pig ileum preparations (Cavia porcellus, UniProt O70526); settings: read-out: K1 value, receptor binding; cited from earlier work
# T1 construct: from tissue; host or cells: guinea-pig ileum preparations
# T1 sequence (O70526 1-372): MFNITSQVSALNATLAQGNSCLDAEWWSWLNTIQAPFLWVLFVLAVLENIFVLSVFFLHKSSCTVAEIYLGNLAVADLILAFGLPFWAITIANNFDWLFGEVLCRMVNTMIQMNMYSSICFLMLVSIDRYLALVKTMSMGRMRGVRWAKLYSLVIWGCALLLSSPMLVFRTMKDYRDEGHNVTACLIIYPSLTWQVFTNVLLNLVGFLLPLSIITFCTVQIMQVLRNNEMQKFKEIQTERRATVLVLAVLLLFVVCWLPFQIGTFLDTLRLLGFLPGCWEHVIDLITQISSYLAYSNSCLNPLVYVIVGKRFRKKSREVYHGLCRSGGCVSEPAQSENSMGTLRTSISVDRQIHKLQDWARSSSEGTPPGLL
# [3] = test system: B2 receptor; settings: cited from earlier work
# [4] = test system: BK-induced ventral root depolarizations; settings: rat spinal cord and tail preparation, n=3; cited from earlier work
# [5] = molecular target: T2, rat B2R (Rattus norvegicus, UniProt P25023); settings: n=3, read-out: IC50, BK-induced [3H]-IP3 formation; cited from earlier work
# T2 sequence (P25023 1-396): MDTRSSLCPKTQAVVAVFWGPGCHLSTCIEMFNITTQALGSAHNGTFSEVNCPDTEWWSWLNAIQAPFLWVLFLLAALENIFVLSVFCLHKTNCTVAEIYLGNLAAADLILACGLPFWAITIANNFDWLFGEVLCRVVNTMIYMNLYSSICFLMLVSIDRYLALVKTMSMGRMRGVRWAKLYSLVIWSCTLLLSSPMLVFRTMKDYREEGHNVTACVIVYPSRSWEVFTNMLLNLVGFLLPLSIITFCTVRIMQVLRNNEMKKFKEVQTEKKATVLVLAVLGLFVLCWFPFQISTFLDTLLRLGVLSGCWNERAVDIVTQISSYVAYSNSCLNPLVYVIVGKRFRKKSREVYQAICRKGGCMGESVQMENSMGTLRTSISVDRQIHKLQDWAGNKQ
# [6] = molecular target: T3, human B1 BK receptor (Homo sapiens, UniProt P46663); settings: cited from earlier work
# T3 sequence (P46663 1-353): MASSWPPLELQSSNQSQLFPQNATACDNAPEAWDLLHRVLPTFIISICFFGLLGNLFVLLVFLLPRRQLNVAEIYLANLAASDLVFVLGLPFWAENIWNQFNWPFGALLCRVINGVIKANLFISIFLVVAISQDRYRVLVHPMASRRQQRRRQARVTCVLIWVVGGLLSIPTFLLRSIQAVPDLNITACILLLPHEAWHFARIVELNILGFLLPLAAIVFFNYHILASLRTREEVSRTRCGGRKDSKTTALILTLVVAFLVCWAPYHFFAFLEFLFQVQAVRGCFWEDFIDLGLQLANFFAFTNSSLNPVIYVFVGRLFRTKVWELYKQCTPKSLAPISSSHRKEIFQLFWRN
# [7] = molecular target: T4, rat B1 BK receptor (Rattus norvegicus, UniProt P97583); settings: cited from earlier work
# T4 sequence (P97583 1-337): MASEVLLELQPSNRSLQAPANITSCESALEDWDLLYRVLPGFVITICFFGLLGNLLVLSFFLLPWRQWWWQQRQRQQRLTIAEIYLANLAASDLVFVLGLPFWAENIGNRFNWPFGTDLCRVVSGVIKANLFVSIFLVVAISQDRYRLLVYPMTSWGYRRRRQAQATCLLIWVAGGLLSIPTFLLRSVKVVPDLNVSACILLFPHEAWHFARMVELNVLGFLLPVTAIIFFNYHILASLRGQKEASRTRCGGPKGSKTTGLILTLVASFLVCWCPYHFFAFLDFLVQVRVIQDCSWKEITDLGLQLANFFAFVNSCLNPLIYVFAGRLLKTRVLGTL
# [8] = test system: BK-induced hypotension and plasma extravasation; settings: in vivo; cited from earlier work
# [9] = molecular target: T2, rat B2R; design: expressed in transfected cells; host or cells: Cos-7 cells; settings: Cos-7 cells expressing the rat receptor, n=3; read-out: KI, displacement of [3H]-BK binding; cited from earlier work
SMILES,tumor growth day 4 to day 11 ([1]; BK and HOE-140 compared to control slices or HOE-140 alone),migration (spread) of GFP-expressing tumor cells ([1]; HOE-140 (5 μM) and BK (1 μM) compared to BK alone),Ki [2] [nM],Schild slope ([3]; 45Ca efflux from NG108-15 cells),"pKB, inhibition of B2 receptor-induced 45Ca efflux ([3]; NG108-15 cells, n=5)",IC50 [4] [nM],IC50 [5] [nM],interaction with human B1 BK receptor [6],interaction with rat B1 BK receptor [7],BK-induced hypotension [8],BK-induced plasma extravasation [8],Ki [9] [nM]
"N=C(N)NCCCC(NC(=O)[C@H](N)CCCNC(=N)N)C(=O)N1CCC[C@H]1C(=O)N1C[C@H](O)C[C@H]1C(=O)NCC(=O)N[C@@H](Cc1cccs1)C(=O)N[C@@H](CO)C(=O)N1Cc2ccccc2C[C@@H]1C(=O)N1C2CCCCC2C[C@H]1C(=O)N[C@H](CCCNC(=N)N)C(=O)O (stereo partly drawn) [HOE-140, D-Arg-[Hyp^3, Thi^5, D-Tic^7, Oic^8]bradykinin]",did not differ significantly,significantly reduced migration,0.798,–,–,–,–,–,–,–,–,–
CN(C)CCN(C)CCNC(=O)[C@@H]1CCCN1S(=O)(=O)c1ccc(NNC(=S)NC(c2ccccc2)c2ccccc2)c([N+](=O)[O-])c1 [Bradyzide],–,–,–,1.05,8.0±0.16,1.6 ± 0.05,11.6 ± 1.4,does not interact,does not interact,blocks,blocks,0.89
